Experimental data reported in the supplement of paper PMC11208160.

test: recombinant UMI read abundance after kanamycin selection (control-corrected) (log10(CPM+1)); higher = more efficient recombination; extreme values may be limits of the assay; sequences stand for … in AGTGCAGAGAAAATCGGCCAGTTTTCTCTGCCTGCAGTCCGCATGCCGTGGGACCCCTTGGGTTCTAACCTGTTGCCTAGATTTATGCAGCGGACTGCCTTTCTCCCAAAGTGATAAACCGG…AGGTTGGTTTCACT; site = the 11-nt donor
Outline: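 After plating on IPTG (0.07 mM) plus kanamycin, or unselected, in two replicates, recombinant UMIs were PCR-amplified across the donor–target junction and sequenced. The cells were Escherichia coli co-electroporated with a UMI-tagged donor and donor-binding-loop pair library and a target plasmid with a fixed target and T7-inducible IS621 bridge recombinase. Values are log10(CPM+1), with CPM averaged over replicates and scaled by control-derived factors.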

Row | Sequence | recombinant UMI read abundance (log10)
1 | TTCAATGCATGGACCGGTTTTCCCGGTAATCCGTATTTGCA (site TTCAATGCTTG) | 0
2 | TTCAGAGCATGGACCGGTTTTCCCGGTAATCCGTATTTGCC (site TTCAGAGCTGG) | 0
3 | TTCAGCTCATGGACCGGTTTTCCCGGTAATCCGTATTTGGT (site TTCAGCTCTAC) | 0.00826
4 | TTCAGTGCATGGACCGGTTTTCCCGGTAATCCGTATTTGGC (site TTCAGTGCTGC) | 0
5 | TTCATACCATGGACCGGTTTTCCCGGTAATCCGTATTTGCC (site TTCATACCTGG) | 0
6 | TTCCAGACATGGACCGGTTTTCCCGGTAATCCGTATTTGTA (site TTCCAGACTTA) | 0.13
7 | TTCCCGCCATGGACCGGTTTTCCCGGTAATCCGTATTTGTT (site TTCCCGCCTAA) | 0.00311
8 | TTCCGCGCATGGACCGGTTTTCCCGGTAATCCGTATTTGCC (site TTCCGCGCTGG) | 0.632
9 | TTCCTAGCATGGACCGGTTTTCCCGGTAATCCGTATTTGAA (site TTCCTAGCTTT) | 0.0135
10 | TTCCTATCATGGACCGGTTTTCCCGGTAATCCGTATTTGCA (site TTCCTATCTTG) | 1.53
11 | TTCGAGCCATGGACCGGTTTTCCCGGTAATCCGTATTTGAC (site TTCGAGCCTGT) | 0
12 | TTCGCGGCATGGACCGGTTTTCCCGGTAATCCGTATTTGCT (site TTAGCGGCTAG) | 0.33
13 | TTCGCGGCATGGACCGGTTTTCCCGGTAATCCGTATTTGCT (site TTCGCGGCTAG) | 0.587
14 | TTCGCGGCATGGACCGGTTTTCCCGGTAATCCGTATTTGCT (site TTGGCGGCTAG) | 0.00776
15 | TTCGCGGCATGGACCGGTTTTCCCGGTAATCCGTATTTGCT (site TTTGCGGCTAG) | 0.0106
16 | TTCGCTGCATGGACCGGTTTTCCCGGTAATCCGTATTTGTG (site TTAGCTGCTCA) | 0.018
17 | TTCGCTGCATGGACCGGTTTTCCCGGTAATCCGTATTTGTG (site TTCGCTGCTCA) | 0.0258
18 | TTCGCTGCATGGACCGGTTTTCCCGGTAATCCGTATTTGTG (site TTGGCTGCTCA) | 0.0131
19 | TTCGCTGCATGGACCGGTTTTCCCGGTAATCCGTATTTGTG (site TTTGCTGCTCA) | 0.00847
20 | TTCGTAACATGGACCGGTTTTCCCGGTAATCCGTATTTGAA (site GCTCGGCCTCC) | 0.019
21 | TTCTAGACATGGACCGGTTTTCCCGGTAATCCGTATTTGTT (site TTCTAGACTAA) | 0.0133
22 | TTCTATACATGGACCGGTTTTCCCGGTAATCCGTATTTGAC (site ATCTATACTGT) | 0
23 | TTCTATACATGGACCGGTTTTCCCGGTAATCCGTATTTGAC (site CTCTATACTGT) | 0
24 | TTCTATACATGGACCGGTTTTCCCGGTAATCCGTATTTGAC (site GTCTATACTGT) | 0
25 | TTCTATACATGGACCGGTTTTCCCGGTAATCCGTATTTGAC (site TTCTATACTGT) | 0.00704

Row | Sequence | recombinant UMI read abundance (log10)
26 | TTCTCCACATGGACCGGTTTTCCCGGTAATCCGTATTTGGA (site TTCTCCACTTC) | 0.00322
27 | TTCTCGACATGGACCGGTTTTCCCGGTAATCCGTATTTGTC (site TTCTCGACTGA) | 0
28 | TTCTTAGCATGGACCGGTTTTCCCGGTAATCCGTATTTGTT (site TTCTTAGCTAA) | 0.0119
29 | TTGACCACATGGACCGGTTTTCCCGGTAATCCGTATTTGCC (site TTGACCACTGG) | 1.79
30 | TTGAGCGCATGGACCGGTTTTCCCGGTAATCCGTATTTGCC (site TTGAGCGCTGG) | 1.9
31 | TTGAGGCCATGGACCGGTTTTCCCGGTAATCCGTATTTGAC (site TTGAGGCCTGT) | 0
32 | TTGATAACATGGACCGGTTTTCCCGGTAATCCGTATTTGGG (site TTGATAACTCC) | 0.00616
33 | TTGCATACATGGACCGGTTTTCCCGGTAATCCGTATTTGGA (site TTGCATACTTC) | 0.121
34 | TTGCGCACATGGACCGGTTTTCCCGGTAATCCGTATTTGTG (site TTGCGCACTCA) | 0.0258
35 | TTGGAGGCATGGACCGGTTTTCCCGGTAATCCGTATTTGTG (site ATGGAGGCTCA) | 0.342
36 | TTGGAGGCATGGACCGGTTTTCCCGGTAATCCGTATTTGTG (site CTGGAGGCTCA) | 0.329
37 | TTGGAGGCATGGACCGGTTTTCCCGGTAATCCGTATTTGTG (site GTGGAGGCTCA) | 0.0131
38 | TTGGAGGCATGGACCGGTTTTCCCGGTAATCCGTATTTGTG (site TTGGAGGCTCA) | 0.791
39 | TTGGGGCCATGGACCGGTTTTCCCGGTAATCCGTATTTGAA (site TTGGGGCCTTT) | 0.00375
40 | TTGGTCACATGGACCGGTTTTCCCGGTAATCCGTATTTGAA (site TTGGTCACTTT) | 0.29
41 | TTGGTCCCATGGACCGGTTTTCCCGGTAATCCGTATTTGAA (site TTGGTCCCTTT) | 0.00683
42 | TTGGTGGCATGGACCGGTTTTCCCGGTAATCCGTATTTGGC (site TTGGTGGCTGC) | 1.84
43 | TTGTTGCCATGGACCGGTTTTCCCGGTAATCCGTATTTGGT (site TTGTTGCCTAC) | 0.0353
44 | TTGTTTGCATGGACCGGTTTTCCCGGTAATCCGTATTTGAG (site TTGTTTGCTCT) | 0.442
45 | TTTACACCATGGACCGGTTTTCCCGGTAATCCGTATTTGAC (site TATACACCTGT) | 0
46 | TTTACACCATGGACCGGTTTTCCCGGTAATCCGTATTTGAC (site TCTACACCTGT) | 0
47 | TTTACACCATGGACCGGTTTTCCCGGTAATCCGTATTTGAC (site TGTACACCTGT) | 0
48 | TTTACACCATGGACCGGTTTTCCCGGTAATCCGTATTTGAC (site TTTACACCTGT) | 0
49 | TTTACCCCATGGACCGGTTTTCCCGGTAATCCGTATTTGCT (site TTTACCCCTAG) | 0.0114
50 | TTTACGGCATGGACCGGTTTTCCCGGTAATCCGTATTTGCT (site TTTACGGCTAG) | 0.234

Row | Sequence | recombinant UMI read abundance (log10)
51 | TTTACGGCATGGACCGGTTTTCCCGGTAATCCGTATTTGCT (site TTTCCGGCTAG) | 0.00939
52 | TTTACGGCATGGACCGGTTTTCCCGGTAATCCGTATTTGCT (site TTTGCGGCTAG) | 0.00519
53 | TTTACGGCATGGACCGGTTTTCCCGGTAATCCGTATTTGCT (site TTTTCGGCTAG) | 0.0523
54 | TTTAGAACATGGACCGGTTTTCCCGGTAATCCGTATTTGGC (site ATTAGAACTGC) | 0.0159
55 | TTTAGAACATGGACCGGTTTTCCCGGTAATCCGTATTTGGC (site CTTAGAACTGC) | 0
56 | TTTAGAACATGGACCGGTTTTCCCGGTAATCCGTATTTGGC (site GTTAGAACTGC) | 0
57 | TTTAGAACATGGACCGGTTTTCCCGGTAATCCGTATTTGGC (site TTTAGAACTGC) | 0
58 | TTTAGAGCATGGACCGGTTTTCCCGGTAATCCGTATTTGTT (site TTTAGAGCTAA) | 0.975
59 | TTTAGCTCATGGACCGGTTTTCCCGGTAATCCGTATTTGTT (site TTTAGCTCTAA) | 0.0116
60 | TTTCAAACATGGACCGGTTTTCCCGGTAATCCGTATTTGTG (site TTTCAAACTCA) | 0.0135
61 | TTTCACCCATGGACCGGTTTTCCCGGTAATCCGTATTTGGG (site TTTCACCCTCC) | 0.00832
62 | TTTCACTCATGGACCGGTTTTCCCGGTAATCCGTATTTGGT (site TTTCACTCTAC) | 0.00742
63 | TTTCCGACATGGACCGGTTTTCCCGGTAATCCGTATTTGTA (site TTTCCGACTTA) | 0.018
64 | TTTCTACCATGGACCGGTTTTCCCGGTAATCCGTATTTGGG (site TTTCTACCTCC) | 0.00805
65 | TTTCTAGCATGGACCGGTTTTCCCGGTAATCCGTATTTGTA (site TTTCTAGCTTA) | 0.542
66 | TTTCTCTCATGGACCGGTTTTCCCGGTAATCCGTATTTGTA (site ATTCTCTCTTA) | 0.353
67 | TTTCTCTCATGGACCGGTTTTCCCGGTAATCCGTATTTGTA (site CTTCTCTCTTA) | 0.301
68 | TTTCTCTCATGGACCGGTTTTCCCGGTAATCCGTATTTGTA (site GTTCTCTCTTA) | 0.297
69 | TTTCTCTCATGGACCGGTTTTCCCGGTAATCCGTATTTGTA (site TTTCTCTCTTA) | 0.571
70 | TTTCTGACATGGACCGGTTTTCCCGGTAATCCGTATTTGCC (site TTTCTGACTGG) | 0
71 | TTTGAGACATGGACCGGTTTTCCCGGTAATCCGTATTTGGA (site TTTGAGACTTC) | 0.832
72 | TTTGCCGCATGGACCGGTTTTCCCGGTAATCCGTATTTGCT (site TTTGCAGCTAG) | 0.0102
73 | TTTGCCGCATGGACCGGTTTTCCCGGTAATCCGTATTTGCT (site TTTGCCGCTAG) | 0.548
74 | TTTGCCGCATGGACCGGTTTTCCCGGTAATCCGTATTTGCT (site TTTGCGGCTAG) | 0.00684
75 | TTTGCCGCATGGACCGGTTTTCCCGGTAATCCGTATTTGCT (site TTTGCTGCTAG) | 0
